# Data: the supplement of paper PMC9663587
# Assays:
# Assay in all cases: GR value, 72 h; higher = faster growth (1 = untreated, <0 = killing);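 also: breast cancer and non-malignant breast epithelial lines, nine half-log doses, viable cells counted by Hoechst and LIVE/DEAD dye imaging versus time-zero plates and DMSO controls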
# [1] = compound: Nc1cc(C(F)(F)F)c(-c2cc(N3CCOCC3)nc(N3CCOCC3)n2)cn1 [Buparlisib/NVP-BKM120]
# [2] = compound: CN1CCN(C(=O)c2ccc3cc(CCNc4ncnc5ccc(C#N)cc45)ccc3c2)CC1 [senexin b]
# [3] = compound: C1=CC(=CC(=C1)N2C(=O)C=CC3=CN=C4C=CC(=CC4=C32)C5=CN=C(C=C5)N)C(F)(F)F [Torin2]
# [4] = compound: CN1CCN(CC1)C2=CC(=C(C=C2)NC3=NC=C4C(=N3)N(C5=CC=CC=C5C(=O)N4CC(F)(F)F)C)OC [FMF-03-146-1]
# [5] = compound: CCC(=O)Nc1ccc(C(=O)Nc2ccc(Nc3ncc4c(n3)N(C)c3ccc(C)cc3C(=O)N4C)cc2)cc1 [FMF-03-145-1]
# [6] = compound: CC(C)n1nc(-c2ccc3oc(N)nc3c2)c2c(N)ncnc21 [INK128/MLN0128]
cell line,measurement,setting,value
AU565,GR value,[1]; 0.001 µM,1.05 GR
same,GR value,[1]; 0.003162 µM,1.07 GR
same,GR value,[1]; 0.01 µM,0.976 GR
same,GR value,[1]; 0.03162 µM,0.845 GR
same,GR value,[1]; 0.1 µM,0.505 GR
same,GR value,[1]; 0.3162 µM,0.186 GR
same,GR value,[1]; 1 µM,-0.365 GR
same,GR value,[1]; 3.162 µM,-0.533 GR
same,GR value,[1]; 10 µM,-0.494 GR
same,GR value,[2]; 0.001 µM,1.02 GR
same,GR value,[2]; 0.003162 µM,0.919 GR
same,GR value,[2]; 0.01 µM,0.88 GR
same,GR value,[2]; 0.03162 µM,1.05 GR
same,GR value,[2]; 0.1 µM,0.897 GR
same,GR value,[2]; 0.3162 µM,0.904 GR
same,GR value,[2]; 1 µM,0.786 GR
same,GR value,[2]; 3.162 µM,0.768 GR
same,GR value,[2]; 10 µM,0.913 GR
same,GR value,[3]; 0.0001 µM,1.06 GR
same,GR value,[3]; 0.0003162 µM,1.02 GR
same,GR value,[3]; 0.001 µM,0.884 GR
same,GR value,[3]; 0.003162 µM,0.698 GR
same,GR value,[3]; 0.01 µM,0.222 GR
same,GR value,[3]; 0.03162 µM,-0.0323 GR
same,GR value,[3]; 0.1 µM,-0.152 GR
same,GR value,[3]; 0.3162 µM,-0.239 GR
same,GR value,[3]; 1 µM,-0.395 GR
same,GR value,[4]; 0.001 µM,0.955 GR
same,GR value,[4]; 0.003162 µM,1.02 GR
same,GR value,[4]; 0.01 µM,1.03 GR
same,GR value,[4]; 0.03162 µM,1 GR
same,GR value,[4]; 0.1 µM,0.928 GR
same,GR value,[4]; 0.3162 µM,0.924 GR
same,GR value,[4]; 1 µM,0.874 GR
same,GR value,[4]; 3.162 µM,0.894 GR
same,GR value,[4]; 10 µM,0.695 GR
same,GR value,[5]; 0.0001 µM,0.967 GR
same,GR value,[5]; 0.0003162 µM,0.975 GR
same,GR value,[5]; 0.001 µM,0.99 GR
same,GR value,[5]; 0.003162 µM,0.971 GR
same,GR value,[5]; 0.01 µM,-0.215 GR
same,GR value,[5]; 0.03162 µM,-0.0803 GR
same,GR value,[5]; 0.1 µM,-0.163 GR
same,GR value,[6]; 0.0003162 µM,0.889 GR
same,GR value,[6]; 0.001 µM,0.931 GR
same,GR value,[6]; 0.003162 µM,0.62 GR
same,GR value,[6]; 0.01 µM,0.249 GR
same,GR value,[6]; 0.03162 µM,0.0411 GR
same,GR value,[6]; 0.1 µM,-0.0783 GR
same,GR value,[6]; 0.3162 µM,-0.0838 GR
same,GR value,[6]; 1 µM,-0.184 GR
same,GR value,[6]; 3.162 µM,-0.48 GR
